ChEMBL document CHEMBL1155575, “Kirkinine, a new daphnane orthoester with potent neurotrophic activity from Synaptolepis kirkii” (2000)

Experiments:
Type in all cases: functional, Gallus gallus
[1] = Neurotrophic activity against chick embryo dorsal root ganglion assessed as neuronal viability at 70 nM after 2 days by Calcein-AM assay
[2] = Neurotrophic activity against chick embryo dorsal root ganglion assessed as neuronal viability at 700 nM after 2 days by Calcein-AM assay
[3] = Neurotrophic activity against chick embryo dorsal root ganglion assessed as neuronal viability at 7000 nM after 2 days by Calcein-AM assay

With `C=C(C)[C@@]12O[C@@]3(/C=C/CCCCCCCCCCCCC)O[C@@H]1[C@@H]1[C@@H]4O[C@]4(CO)[C@@H](O)[C@]4(O)C(=O)C(C)=C[C@H]4[C@@]1(O3)[C@H](C)[C@H]2OC(C)=O` [KIRKININE] as the compound, how does the Activity [1] read?
Its Activity is 57%.

And the Activity [2]?
The Activity was 103%.

And the Activity [3]?
The Activity was 142%.
